Measured values: patent publication EP4744682A1, “NOVEL CERIUM OXIDE NANOCOMPOSITE WITH ENHANCED BIOSTABILITY AND USE THEREOF” (Cenyx Biotech Inc., priority 2023, dated 2025)

Test system: Hepa-1C1C7 hepatocyte cells
Assay: Survival of pyrogallol-treated hepatocytes, NRU assay
Format: cell-based
Settings: 500µM pyrogallol alone; 3 hours; compared to pyrogallol-untreated control
Experimental: Inflammatory liver disease is a condition where the liver cannot perform its normal functions due to liver damage, metabolic disorders, and accumulation of toxic substances. The present inventors sought to verify the therapeutic effect of the cerium oxide nanocomplex of the present invention on inflammatory liver disease. To induce the disease, Hepa-1C1C7 hepatocyte cells were treated with 500µM pyrogallol, a cytotoxic substance, to induce acute inflammatory liver disease. Simultaneously, the cells were treated with the cerium oxide nanocomplex of the present invention at concentrations ranging from 0.01 to 5µM. Three hours after treatment, the survival rate of Hepa-lclc7 cells was measured using the NRU assay, a biochemical analysis method that measures cell survival by allowing the neutral red dye to be absorbed by living cells. […] When treated with the cerium oxide nanocomplex of the present invention, survival rates of 74.55% at a minimum concentration of 0.01 µM and approximately 93.19% at a maximum concentration of 5µM were observed. This represents an increase in survival rate of at least 47.81% to a maximum of 84.78% compared to cells treated with pyrogallol alone (FIG. 13).

## Oc1cccc(O)c1O [pyrogallol]
  survival rate of cells: approximately 50.43%
